The values that follow come from PubChem BioAssay (NCI).

“And” between values parts separate entries of the source, which are not always exact repeats. Equal values may be shown once.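 Cultured in 96-well plates, cells were exposed to test compound for 48 hours across five concentrations. The concentration for 50% growth inhibition is given as GI50. TGI is the concentration that stops growth completely.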

Test systems include EKVX NSCLC; MALME-3M melanoma; U251 CNS; SR leukemia; M14 melanoma; SK-MEL-28 melanoma; T-47D breast; HS 578T breast; MDA-MB-435; DU-145 prostate.
Assay in all cases: growth of human tumour cells (NCI), 48 h

As for `COc1ccc2c(c1)nnn1c3ncccc3c(N=O)c21`, the GI50 in the assay on EKVX NSCLC is 3.38 µM and 3.82 µM; in the assay with MALME-3M melanoma it was 0.769 µM and 1.5 µM; in the assay on U251 CNS, 0.72 µM and 1.18 µM; with SR leukemia it was 0.00899 µM and 0.0247 µM; in the assay on M14 melanoma it was 1.57 µM and 3.44 µM; in the assay with SK-MEL-28 melanoma, 3.48 µM and 11.4 µM. The GI50 in the assay on T-47D breast is 0.162 µM and 0.515 µM; in the assay with HS 578T breast, 1.17 µM and 11.5 µM; in the assay on MDA-MB-435, 1.94 µM and 2.05 µM; with DU-145 prostate it was 1.82 µM and 2.38 µM. For the same compound, the TGI was 25.3 µM and 61.8 µM in the assay on EKVX NSCLC; 5.77 µM and 5.63 µM with MALME-3M melanoma; 31.3 µM and 12.9 µM in the assay on U251 CNS; 13.6 µM and 74.4 µM in the assay on SK-MEL-28 melanoma; 2.36 µM and 7.9 µM with T-47D breast; 9.7 µM and 12.4 µM with MDA-MB-435. The TGI with DU-145 prostate was 13 µM and 8.09 µM.
As for `COC(=O)c1ccccc1OCc1cc(=O)oc2ccc(C)cc12`, the TGI with EKVX NSCLC was above 100 µM; with MALME-3M melanoma, above 100 µM; with U251 CNS, 35.4 µM; in the assay on SR leukemia it was above 100 µM; in the assay with M14 melanoma it was above 100 µM; in the assay with SK-MEL-28 melanoma, above 100 µM. In addition, the TGI in the assay on T-47D breast, in the assay on HS 578T breast, in the assay with MDA-MB-435 and with DU-145 prostate was above 100 µM in each case.
